Test results reported in article PMC9944328 (Nature Communications, 2023).
Like-named read-outs stand apart in the source and are kept apart here.

Tested on: SSTR2 mutants
Assay: SSTRs Gi-mediated cAMP inhibition, GloSensor, HEK293, 5 μM forskolin, 15 min room temperature (SSTR2 mutants)
Assay type: cell-based, human
Experimental: The levels of the intracellular 3′, 5′-cyclic AMP (cAMP) were measured by the GloSensor cAMP assay (Promega) as described in the previous studies[28],[41] which has been widely used. The human full-length SSTRs and mutants were cloned into the pcDNA3.1+ vector with a HA signal sequence followed by a Flag tag at the N-terminus. HEK293 cells (ATCC, CRL-1573) were seeded into 6-well microplates at a density of 1.0 × 10^6 cells/well and cultured for 24 h at 37 °C with 5% CO2. Cells were then co-transfected with SSTR wild-type or mutants and GloSensor plasmids. After 24 h of transfection, the cells were dissociated with TrypLE™ Express Enzyme (1X) (Thermo Fisher Scientific) and collected by centrifugation at 500 × g for 5 min. Then the collected cells were suspended in Hank’s balanced salt solution [HBSS (Thermo Fisher Scientific)] supplemented with […] (YEASEN), and then the suspension cells were seeded into 96-well plates with 90 μl/well. After incubating at room temperature for 40 min, 5 μM forskolin and ligands diluted in HBSS were added to each well and the plates were incubated at room temperature for 15 min. […] were measured using the Synergy H1 microplate reader (BioTek) and the data presented are means of at least three independent experiments.

[1] = cAMP inhibition best-fit, F127A-1
[2] = cAMP inhibition best-fit, F127A-2
[3] = cAMP inhibition best-fit, F127A-3
[4] = cAMP inhibition best-fit, I130A-1
[5] = cAMP inhibition best-fit, I130A-2
[6] = cAMP inhibition best-fit, I130A-3
[7] = cAMP inhibition best-fit, Q102A-1
[8] = cAMP inhibition best-fit, Q102A-2
[9] = cAMP inhibition best-fit, Q102A-3
[10] = cAMP inhibition best-fit, V103A-1
[11] = cAMP inhibition best-fit, V103A-2
[12] = cAMP inhibition best-fit, V103A-3

Compound: N#Cc1cccc(-c2ccc3ncc(-c4cc(F)cc(F)c4)c(N4CCC(N)CC4)c3c2)c1O [paltusotine]
- LogEC50 (best-fit value), cAMP inhibition (Y302A-1 (run 1)): -7.774
- Span (best-fit value), cAMP inhibition (Y302A-1 (run 1)): 45.84
- Top (best-fit value), cAMP inhibition (Y302A-1 (run 1)): 51.54
- Bottom (best-fit value), cAMP inhibition (Y302A-2 (run 2)): 6.053
- LogEC50 (best-fit value), cAMP inhibition (Y302A-2 (run 2)): -7.903
- Span (best-fit value), cAMP inhibition (Y302A-2 (run 2)): 53.55
- Top (best-fit value), cAMP inhibition (Y302A-2 (run 2)): 59.6
- Bottom (best-fit value), cAMP inhibition (Y302A-3 (run 3)): 6.125
- LogEC50 (best-fit value), cAMP inhibition (Y302A-3 (run 3)): -8.216
- Span (best-fit value), cAMP inhibition (Y302A-3 (run 3)): 50.13
- Top (best-fit value), cAMP inhibition (Y302A-3 (run 3)): 56.25
- Bottom [1]: 3.363
- EC50 [1]: 0.994 nM
- LogEC50 [1]: -9.003
- Span [1]: 99.71
- Top [1]: 103.1
- Bottom [2]: -15.5
- EC50 [2]: 0.816 nM
- LogEC50 [2]: -9.089
- Span [2]: 125.3
- Top [2]: 109.8
- Bottom [3]: 3.745
- EC50 [3]: 0.665 nM
- LogEC50 [3]: -9.177
- Span [3]: 105.4
- Top [3]: 109.1
- Bottom [4]: 11.53
- EC50 [4]: 17.8 nM
- LogEC50 [4]: -7.749
- Span [4]: 105
- Top [4]: 116.5
- Bottom [5]: 16.26
- EC50 [5]: 15.1 nM
- LogEC50 [5]: -7.822
- Span [5]: 108.4
- Top [5]: 124.7
- Bottom [6]: 6.76
- EC50 [6]: 23.9 nM
- LogEC50 [6]: -7.621
- Span [6]: 101.4
- Top [6]: 108.2
- EC50 [7]: 43.6 nM
- LogEC50 [7]: -7.36
- Span [7]: 102.2
- Top [7]: 104
- EC50 [8]: 28.2 nM
- LogEC50 [8]: -7.55
- Span [8]: 100.8
- Top [8]: 101.3
- EC50 [9]: 21.3 nM
- LogEC50 [9]: -7.671
- Span [9]: 85.31
- Top [9]: 86.48
- Bottom [10]: 9.955
- EC50 [10]: 90.2 nM
- LogEC50 [10]: -7.045
- Span [10]: 84.48
- Top [10]: 94.43
- Bottom [11]: -12.27
- EC50 [11]: 7.12 nM
- LogEC50 [11]: -8.147
- Span [11]: 105.2
- Top [11]: 92.96
- Bottom [12]: 15.94
- EC50 [12]: 1.5 nM
- LogEC50 [12]: -8.823
- Span [12]: 58.67
- Top [12]: 74.61
- EC50 (read-out: EC50 (best-fit value), cAMP inhibition, D295A-1 (run 1)): 16 nM
- EC50 (read-out: EC50 (best-fit value), cAMP inhibition, D295A-2 (run 2)): 15.9 nM
- EC50 (read-out: EC50 (best-fit value), cAMP inhibition, D295A-3 (run 3)): 18.1 nM
- EC50 (read-out: EC50 (best-fit value), cAMP inhibition, F272A-1 (run 1)): 17.7 nM
- EC50 (read-out: EC50 (best-fit value), cAMP inhibition, F272A-2 (run 2)): 26.7 nM
- EC50 (read-out: EC50 (best-fit value), cAMP inhibition, F272A-3 (run 3)): 145 nM
- EC50 (read-out: EC50 (best-fit value), cAMP inhibition, F294A-1 (run 1)): 3.57 nM
- EC50 (read-out: EC50 (best-fit value), cAMP inhibition, F294A-2 (run 2)): 4.21 nM
- EC50 (read-out: EC50 (best-fit value), cAMP inhibition, F294A-3 (run 3)): 0.15 nM
- EC50 (read-out: EC50 (best-fit value), cAMP inhibition, K291A-1 (run 1)): 4.34 nM
- EC50 (read-out: EC50 (best-fit value), cAMP inhibition, K291A-2 (run 2)): 1.48 nM
- EC50 (read-out: EC50 (best-fit value), cAMP inhibition, K291A-3 (run 3)): 6.95 nM
- EC50 (read-out: EC50 (best-fit value), cAMP inhibition, N276A-1 (run 1)): 0.993 nM
- EC50 (read-out: EC50 (best-fit value), cAMP inhibition, N276A-2 (run 2)): 2.19 nM
- EC50 (read-out: EC50 (best-fit value), cAMP inhibition, N276A-3 (run 3)): 1.77 nM
- EC50 (read-out: EC50 (best-fit value), cAMP inhibition, Y302A-1 (run 1)): 16.8 nM
- EC50 (read-out: EC50 (best-fit value), cAMP inhibition, Y302A-2 (run 2)): 12.5 nM
- EC50 (read-out: EC50 (best-fit value), cAMP inhibition, Y302A-3 (run 3)): 6.08 nM
- EC50 (read-out: EC50 (best-fit value), F208A-1 (run 1)): 14.9 nM
- EC50 (read-out: EC50 (best-fit value), F208A-2 (run 2)): 98.5 nM
- EC50 (read-out: EC50 (best-fit value), F208A-3 (run 3)): 79.3 nM
- EC50 (read-out: EC50 (best-fit value), F265A-1 (run 1)): 11.3 nM
- EC50 (read-out: EC50 (best-fit value), F265A-2 (run 2)): 14.7 nM
- EC50 (read-out: EC50 (best-fit value), F265A-3 (run 3)): 9.82 nM
- EC50 (read-out: EC50 (best-fit value), P220A-1 (run 1)): 3.5 nM
- EC50 (read-out: EC50 (best-fit value), P220A-2 (run 2)): 3.09 nM
- EC50 (read-out: EC50 (best-fit value), P220A-3 (run 3)): 3.08 nM
- EC50 (read-out: EC50 (best-fit value), W269A-1 (run 1)): 0.601 nM
- EC50 (read-out: EC50 (best-fit value), W269A-2 (run 2)): 0.503 nM
- EC50 (read-out: EC50 (best-fit value), W269A-3 (run 3)): 0.604 nM
- EC50 (read-out: EC50 (best-fit value), Y205A-1 (run 1)): 0.344 nM
- EC50 (read-out: EC50 (best-fit value), Y205A-2 (run 2)): 0.915 nM
- EC50 (read-out: EC50 (best-fit value), Y205A-3 (run 3)): 0.18 nM
